Results as given in patent US20250221957A1, “PS[…] AND THEIR USE FOR TREATING […] AND NE[…] DISORDERS” (Transcend Therapeutics, Inc., priority 2021, published 2025).
Like-named read-outs stand apart in the source and are kept apart here.

Tests used:
[1] = tested on: Sprague Dawley rats; conditions: cited from earlier work
[2] = tested on: Sprague Dawley rats; assay: Forced Swim Test (FST); format: in vivo, rat; conditions: for reduction in immobility (magnitude of the effect): single dose 30 min before testing
From the text: The Forced Swim Test (FST) is a classic, and the most used preclinical behavioral assay to screen compounds with antidepressant-like activity and has high predictive and face validity (Porsolt et al. (1977) Nature 266:730; Borsini and Meli (1988) Psychopharmacology 94:147). The premise of the FST is that when rats are placed into a cylinder filled with water, they will initially try to escape, but over time will become immobile. This increased immobility reflects behavioral despair, modeling a depressive-like state.
Animals: Male Sprague Dawley rats (Charles River Laboratories) weighing 180-200 g on arrival, were used for this study which took place at Melior Discovery (Exton, PA). Rats acclimated to their home cages for at least one week before testing, were maintained in a controlled environment on a 12 h light/dark cycle, with no more than 2 rats per cage. Animals received ad libitum access to food and water and were assigned randomly to treatment groups. Animal use and procedures were in accordance with established protocols approved by the IACUC committee, Melior Standard Operation Procedures (SOP), and Transcend Therapeutics.
Forced Swim Test (FST): In the FST trial, rats were be placed in a circular plexiglass container filled with water, with no means of escape. Water temperature was maintained at 22-25° C. and changed for every animal. After an acclimation period, rats were timed for inactivity (failure to struggle), activity, swim time and climbing time. Day 1 consisted of a 15 min acclimation trial, and Day 2 (24 h later) consisted of the 5 min test. A time sampling procedure was employed where animals were observed every 5 sec and scored for immobility, swimming, or climbing. Fluoxetine (10 mg/kg, IP, Sigma Aldrich) or 0.9% sterile saline vehicle (vehicle 3× group) were administered 23.5, 5, and 1 h before testing in the FST. […] The experimenter was blinded to treatment.
Statistical Analysis: Data for each parameter of the test (immobility, swimming, or climbing) is expressed as the mean±SEM. Differences between groups were determined by one-way ANOVA and post-hoc Tukey's test with a p-value of less than 0.05 indicating statistically significant differences.
Forced Swim Test: In the FST trial, rats were be placed in a circular plexiglass container filled with water, with no means of escape. Water temperature was maintained at 22-25° C. and changed for every animal. After an acclimation period, rats were timed for inactivity (failure to struggle), activity, swim time and climbing time. Day 1 consisted of a 15 min acclimation trial, and Day 2 (24 h later) consisted of the 5 min test. A time sampling procedure was employed where animals were observed every 5 sec and scored for immobility, swimming, or climbing. Fluoxetine (10 mg/kg, IP, Sigma Aldrich) or 0.9% sterile saline vehicle (vehicle 3× group) were administered 23.5, 5, and 1 h before testing in the FST. 2C-B (2.5, 10, or 20 mg/kg, IP, Cayman Chemical) or 0.9% saline vehicle (vehicle 1× group) were administered 30 min prior to FST testing. The experimenter was blinded to treatment.
Drug Treatment: Fluoxetine (10 mg/kg, IP, Sigma Aldrich) or 0.9% sterile saline vehicle were administered 23.5, 5, and 1 h before testing in the FST. […] Control animals received fluoxetine alone, methylone alone, or saline vehicle.
Forced Swim Test: In the FST trial, rats were be placed in a circular plexiglass container filled with water, with no means of escape. Water temperature was maintained at 22-25° C. and changed for every animal. After an acclimation period, rats were timed for inactivity (failure to struggle), activity, swim time and climbing time. The experimenter and scorer were blind to treatment group. Day 1 consisted of a 15 min acclimation trial, and Day 2 (24 h later) consisted of the 5 min test. A time sampling procedure was employed where animals were observed every 5 sec and scored for immobility, swimming, or climbing. […]

[3] = tested on: drug users / humans; conditions: cited from earlier work
[4] = tested on: mice; assay: Fear extinction paradigm, mouse model of PTSD; format: in vivo; conditions: MBDB 5 mg/kg IP, day 2
From the text: (FIG. 9A) Schematic of experimental design. A single CS-US (tone-shock) pairing on day 1 was followed by 6 CS presentations in a novel context (context B). […] On day 3, the time spent freezing to the CS was quantified. […] (FIG. 9C) No locomotor changes were observed on day 3 (t(26)=1.073, p>0.05). Data are mean +/− SEM.
FIGS. 10A-10B: MBDB improves fear extinction in a mouse model of PTSD. A single CS-US (tone-shock) pairing on day 1 was followed by 6 conditioned stimulus (CS) presentations in a novel context (context B). MBDB or saline vehicle was injected 30 min prior to extinction training on day 2. The time spent freezing to the CS was quantified on […]. […] Data are mean +/− SEM. N=10 for MBDB group (5 mg/kg, IP) and N=16 for saline control group. **p<0.01 vs. vehicle control group.
Effective PTSD treatments facilitate the disassociation between a traumatic memory and the patient's fear response, making cues for the traumatic memory evoke less of a fear response. This is modeled in the mouse fear extinction paradigm (see FIG. 9A) which takes place over 3 days. On day 1 (fear conditioning), mice are trained to acquire a “traumatic memory,” namely associating the conditioned stimulus (CS, tone) to the unconditioned stimulus (US, foot shock). On day 2 (extinction training), they are trained to forget the traumatic memory association by presenting the CS 6 times (with no US) in a novel environment. On day 3 (extinction recall), the mice are “asked” if that tone (CS) still elicits a fearful response, as measured by the time spent freezing when the tone is presented. Less time freezing means better extinction recall. Drugs that improve extinction recall reduce freezing time on day 3, and, therefore, show potential as a PTSD treatment.

[5] = tested on: serotonergic terminals in the cortex and hippocampus; conditions: 25 mg/kg IP every 12 hours for 4 days; 2 weeks post-treatment; cited from earlier work
[6] = molecular target: T1, Human serotonin 5HT2B receptor (Homo sapiens, UniProt P41595); assay: Competitive radioligand binding to 5HT2B receptor membrane preparations; conditions: ratio of Ki values
T1 construct: host or cells: 5HT2B receptor expressing membranes
Procedure: Human serotonin 5HT2B receptor membrane preparations were divided into aliquots. On the day of the assay, membranes were diluted at 1:200 in incubation buffer. […] To each well was added 150 μL membrane preparation, 50 μL test compound, non-specific compound, or buffer alone, as well as 50 μL radioligand. The plate was incubated at 35° C. for 90 minutes with gentle agitation. […] For each concentration of drug, non-specific binding was subtracted from total binding to give specific binding. […] Ki was subsequently calculated using the ChengPrusoff equation.

[7] = molecular target: T1, Human serotonin 5HT2B receptor; conditions: literature values; read-out: reported Ki; cited from earlier work
[8] = tested on: mice; conditions: MDMA 7.5 mg/kg 30 minutes prior to extinction training (Young 2015); cited from earlier work
[9] = depending on the animal model used and dosing conditions; cited from earlier work
[10] = 13 of 77 deaths, meta-analysis; cited from earlier work

T1 sequence (P41595 whole entry): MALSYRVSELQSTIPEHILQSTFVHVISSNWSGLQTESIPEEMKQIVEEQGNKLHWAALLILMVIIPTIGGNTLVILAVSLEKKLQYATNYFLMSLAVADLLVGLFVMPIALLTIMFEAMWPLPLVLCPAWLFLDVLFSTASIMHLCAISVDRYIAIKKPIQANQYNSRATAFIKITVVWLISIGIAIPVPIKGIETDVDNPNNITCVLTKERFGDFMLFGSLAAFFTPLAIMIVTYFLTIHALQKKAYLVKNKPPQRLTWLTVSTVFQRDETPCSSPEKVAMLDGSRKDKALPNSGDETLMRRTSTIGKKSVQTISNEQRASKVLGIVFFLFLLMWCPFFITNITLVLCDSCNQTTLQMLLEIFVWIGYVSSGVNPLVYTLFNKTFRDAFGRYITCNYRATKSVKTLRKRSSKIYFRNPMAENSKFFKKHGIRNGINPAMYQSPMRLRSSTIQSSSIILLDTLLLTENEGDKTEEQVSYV

In the case of `CCN(CC)C(=O)[C@@H]1C=C2c3cccc4[nH]cc(c34)C[C@H]2N(C)C1` [LSD, lysergic acid-N,N-diethylamide], the “reduction in immobility in the FST, previous reports” value ([1]; literature (Hibicke 2020; Yang 2013; Tizabi 2012)) is listed as 38%.
For `COc1cc(CCN)c(OC)cc1Br` [2C-B, 4-Bromo-2,5-dimethoxyphenethylamine], the climbing ([2]; 2C-B 2.5, 10, 20 mg/kg IP) was “significantly decreased only in the high-dose group”, the “reduction in immobility (magnitude of the effect)” value ([2]; 2C-B high-dose (20 mg/kg IP)) was 53% and the “reduction in immobility (magnitude of the effect)” value ([2]; 2C-B mid-dose (10 mg/kg IP)) was 50%. For the same compound, the swimming ([2]; single dose of 2C-B 30 minutes before testing) was “significant increase in swimming” and the adverse effects ([3]; self-administered 2C-B, 10 to 20 mg, experienced drug users) was “no serious adverse effects”.
In the case of `CCC(Cc1ccc2c(c1)OCO2)NC` (racemic) [MBDB, N-methyl-1-(1,3-benzodioxol-5-yl)-2-aminobutane], the climbing ([2]; MBDB IP 30 min before testing) is reported as “significantly reduced only at the highest dose”, the swimming ([2]; MBDB IP 30 min before testing) is reported as “robustly increased at all doses tested” and the immobility ([2]; MBDB IP 30 min before testing, all doses tested (15-30 mg/kg)) is reported as “significantly reduced immobility”. The “extinction acquisition on the first trial of extinction training” value [4] was “improved extinction acquisition”, the locomotor activity [4] was “small, but significant increase” and the “serotonergic terminals destroyed in the cortex and hippocampus” value [5] was 55-60%. For the same compound, the adverse effects ([3]; self-administered MBDB under supervision, 100 to 300 mg) was “no serious adverse effects”.
With `CNCCC(Oc1ccc(C(F)(F)F)cc1)c1ccccc1` (centres unmarked) [fluoxetine, reference compound] the swimming behavior ([2]; Example 8) was “significantly increased swimming behavior”, the reduction in immobility ([2]; fluoxetine 10 mg/kg IP at 23.5, 5 and 1 h before testing (Examples 6 and 7)) was 56% and the “reduced immobility compared to vehicle” value ([2]; fluoxetine alone, 10 mg/kg IP x3 (Example 8)) was 60%.
In the case of `CC(N)Cc1ccc2c(c1)OCO2` (centres unmarked) [MDA], the “greater affinity for the 5HT2B receptor compared with methylone” value [6] is listed as 37 times and the Ki [7] is listed as 100 nM.
In the case of `CNC(C)Cc1ccc2c(c1)OCO2` (centres unmarked) [MDMA, 3,4-Methylenedioxymethamphetamine], the “greater affinity for the 5HT2B receptor compared with methylone” value [6] is given as 7.5 times, the “reduction in immobility, reported” value ([1]; MDMA 5 mg/kg, Flinders Sensitive Line rats (Majumder 2011)) is given as 45% and the “reduction in immobility, reported” value ([1]; MDMA 5 mg/kg, Sprague Dawley rats (Majumder 2011)) is given as 45%. The “reduction in immobility, reported” value ([1]; MDMA 10 mg/kg, Flinders Sensitive Line rats (Majumder 2011)) was 93%, the “reduction in immobility, reported” value ([1]; MDMA 10 mg/kg, Sprague Dawley rats (Majumder 2011)) was 78% and the “reduced freezing compared to saline injected controls (extinction recall)” value [8] was 35%. For the same compound, the half-life [9] was 5 to 7 h and the “blood concentration in deaths attributable to MDMA alone” value [10] was 478 to 53900 ng/mL.
